Measurements from patent publication US20250374924A1, “ACTIVE MOLECULES IN THE SECRETOME OF PSEUDOMONAS PROTEGENS PBL3” (Board of Regents of the University of Nebraska, priority 2024, published 2025).
Entries after “also recorded” stand apart in the source; their conditions may differ.

Columns and labels:
Burkholderia glumae = assay: Antimicrobial assay in vitro: growth of B. glumae in KB broth (OD600 after 18 hours); conditions: for minimum inhibitory concentration needed for reduction of B. glumae growth in vitro: concentrations tested 1000, 100, 10 μg/mL; for growth of B. glumae (in words): concentrations ranging from 10 μg/mL to 1000 μg/mL
Procedure: A single colony of P. protegens PBL3 was grown in 1×M9 minimal media (Sigma Aldrich, St. Louis, MO) supplemented with filter-sterilized 56 mM Myo-inositol, 2 mM MgSO4·7H2O, and 0.2 mM CaCl2). The culture was incubated at 25° C. with constant agitation (210 rpm) for 60 hours until reaching an optical density at 600 nm (OD600) of 0.5. Bacterial culture was centrifuged at 10,000 rpm for 10 minutes. The bacterial pellet was discarded and the supernatant, containing the secreted fraction (secretome) was transferred to a new tube and filter-sterilized using a 0.22 μm filter (Fisher Scientific, Ireland) to eliminate any residual bacterial suspension.
Orfamide A, orfamide B, pyrrolnitrin, and pyoluteorin (Cayman Chemical Company, Ann Arbor, MI), and pyochelin (Santa Cruz Biotechnology, Dallas, TX), were diluted in 5% dimethyl sulfoxide (DMSO) at 1000 μg/mL and further diluted to 100 μg/mL and 10 μg/mL. Similarly, pyoverdine (Sigma-Aldrich, Saint Louis, MO) was diluted in water, whereas 2,4-DAPG (ThermoFisher Scientific, Poland) and fengycin (Sigma-Aldrich, Saint Louis, MO) were diluted in 5% ethanol at 1000 μg/mL and further diluted to 100 μg/mL and 10 μg/mL.
Burkholderia glumae grown on KB was scraped from the agar and resuspended in sterile water to a final OD600 of 0.2. One hundred microliters of B. glumae was added to 200 μL of KB broth to make a master mix. The master mix was supplemented with either water, 5% DMSO, or 5% ethanol, used as control. Alternatively, master mix was supplemented with either P. protegens PBL3 secretome or different compounds (orfamide A, orfamide B, fengycin, pyrrolnitrin, pyochelin, pyoverdine, 2,4-DAPG, or pyoluteorin), each at three concentrations of 1000 μg/mL, 100 μg/mL, and 10 μg/mL, or combination of compounds. Two compound combinations were chosen, the first combination consisted of 2,4-DAPG and pyoluteorin at final concentrations of 100 μg/mL and 10 μg/mL, respectively. The second combination consisted of 2,4-DAPG and pyoluteorin, each at concentration of 10 μg/mL. […] The growth of B. glumae was evaluated by measuring the OD600 using a spectrophotometer (Genesys 140, Thermoscientific, Madison, WI, USA). Each experiment was replicated three times.

[1] = tested on: rifampicin-resistant strain of B. glumae; assay: Antimicrobial assay in planta: rice panicles pre-treated with compound, then spray-inoculated with B. glumae (BPB symptoms, bacterial populations); format: in vivo, Burkholderia glumae; conditions: 3 dpi; for reduction of B. glumae populations in rice panicles: pre-treated with 500 μg/mL, vs water pre-treated inoculated panicles, FIG. 4B; for BPB symptoms in rice panicles (in words): rice Kitaake panicles pre-treated with 500 μg/mL, water pre-treated, inoculated panicles exhibited the highest levels of BPB symptoms, FIG. 4A
[2] = at the three concentrations 10 μg/mL, 100 μg/mL, 1000 μg/mL
[3] = compound at 1000 μg/mL, 18 hours, FIG. 2
[4] = at a concentration of 1000 μg/mL
[5] = other concentrations than 1000 μg/mL (100 μg/mL, 10 μg/mL), FIG. 2
[6] = compound at 100 μg/mL, 18 hours, FIG. 2

| Compound | reduction in B. glumae growth (Burkholderia glumae; 2,4-DAPG at 100 μg/mL alone or with pyoluteorin at 10 μg/mL, 18 hours, FIG. 7) [%] | effect on growth of B. glumae (in words) (Burkholderia glumae; [2]) | reduction of growth of B. glumae (Burkholderia glumae; [3]) [%] | minimum inhibitory concentration needed for reduction of B. glumae growth in vitro (Burkholderia glumae) [mg/L] | reduction of B. glumae populations in rice panicles [1] | BPB symptoms in rice panicles (in words) [1] | effect on growth of B. glumae (in words) (Burkholderia glumae; [4]) | effect on growth of B. glumae (in words) (Burkholderia glumae; [5]) | reduction of growth of B. glumae (Burkholderia glumae; [6]) [%] | growth of B. glumae (in words) (Burkholderia glumae; FIG. 2) |
| --- | --- | --- | --- | --- | --- | --- | --- | --- | --- | --- |
| CC(=O)c1c(O)cc(O)c(C(C)=O)c1O [2,4-DAPG, 2,4-diacetylphloroglucinol] | 45 | inhibits B. glumae; also recorded: significantly reduced the growth of B. glumae | 93 | 100 | 1.17 logs | showed reduction of symptoms | – | – | – | – |
| CN1[C@@H]([C@H]2CSC(c3ccccc3O)=N2)SC[C@H]1C(=O)O [pyochelin] | – | – | 40 | 1000 | No changes in B. glumae populations | showed reduction of symptoms | inhibits B. glumae | did not have any effect | – | – |
| O=C(c1cc(Cl)c(Cl)[nH]1)c1c(O)cccc1O [pyoluteorin] | – | inhibits B. glumae; also recorded: significantly reduced the growth of B. glumae | 97 | 100 | 1.5 logs | showed reduction of symptoms | – | – | 97 | – |
| O=[N+]([O-])c1c(Cl)cccc1-c1c[nH]cc1Cl [pyrrolnitrin] | – | – | 25 | 1000 | – | – | inhibits B. glumae | did not have any effect | – | – |
| Orfamide A | – | – | – | – | – | – | – | – | – | did not reduce the growth of B. glumae |
| fengycin | – | – | – | – | – | – | – | – | – | did not reduce the growth of B. glumae |
| orfamide B | – | – | – | – | – | – | – | – | – | did not reduce the growth of B. glumae |
| pyoverdine | – | inhibits B. glumae | ~80 | 100 | No changes in B. glumae populations | – | – | – | ~80 | – |
